Five compounds from ChEMBL document CHEMBL1201862, “PubChem BioAssay data set” (2004) can be followed below.

Molecules are shown by their SMILES.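 Cells were grown in 96-well plates and exposed to each compound for 48 hours at five concentrations; endpoints were interpolated linearly between bracketing concentrations, or set to the highest concentration if not reached. GI50: concentration for 50% inhibition of growth.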 Calls of active or inactive are those of the source. No stated cut-off is given here; in the data, active = GI50 up to about 1.1 µM and inactive = higher.

Test systems include A549; LOX IMVI; CAKI-1; SR; HT-29; PC-3; SNB-78; SF-295; NCI/ADR-RES; T47D; HL-60; U-251; ACHN; SF-539; Malme-3M; IGROV-1; MCF7; KM12; TK-10; DMS-273.
Common to all, as to test: NCI tumour cell line growth inhibition, 48 h

With `CC(=O)OC(C)C1C2=C(C(=O)CC1(C)O)C(=O)c1c(ccc(-c3ccc4c(c3O)C(=O)C3=C(C4=O)C(C(C)OC(C)=O)C(C)(O)CC3=O)c1O)C2=O` (stereo unspecified), the GI50 in the test on A549 is 5.47 µM (inactive); in the test on LOX IMVI, 1.42 µM (inactive); in the test on CAKI-1, 2.82 µM (inactive); in the test with SR, 1.1 µM (active); with HT-29 it was 1.72 µM (inactive); with PC-3 it was 3.1 µM (inactive). The GI50 with SNB-78 is 3.18 µM (inactive); in the test on SF-295, 11.6 µM (inactive); with NCI/ADR-RES, 15.8 µM (inactive); with T47D, 0.78 µM (active); in the test on HL-60, 0.398 µM (active); in the test on U-251, 1.72 µM (inactive). Moreover, the GI50 in the test on ACHN is 1.73 µM (inactive); in the test on SF-539, 1.92 µM (inactive); with Malme-3M, 0.724 µM (active); in the test with IGROV-1 it was 9.12 µM (inactive); in the test with MCF7 it was 1.53 µM (inactive); in the test with KM12 it was 3.19 µM (inactive). Moreover, the GI50 in the test on TK-10 was 2.19 µM (inactive); in the test with DMS-273 it was 1.52 µM (inactive).

Turning to `C/C(=C\COc1ccc2ccc(=O)oc2c1)C1=CC(=O)C(C)(C)O1` [GEIPARVARIN], the GI50 in the test with A549 was 7.67 µM (inactive); with LOX IMVI, 1.89 µM (inactive); with CAKI-1 it was 4.83 µM (inactive); in the test with SR it was 1.68 µM (inactive); in the test with HT-29, 4.01 µM (inactive); in the test on PC-3 it was 6.58 µM (inactive). The GI50 was 4.15 µM (inactive) in the test on SNB-78; 2.43 µM (inactive) in the test with SF-295; 2.64 µM (inactive) with NCI/ADR-RES; 3.68 µM (inactive) in the test on T47D; 2.29 µM (inactive) with HL-60; 4.3 µM (inactive) in the test with U-251. The GI50 in the test with ACHN was 4.39 µM (inactive); with SF-539 it was 2.17 µM (inactive); in the test on Malme-3M, 5.58 µM (inactive); in the test with IGROV-1 it was 4.63 µM (inactive); in the test with TK-10, 5.07 µM (inactive); in the test on DMS-273 it was 4.42 µM (inactive).

With `N#Cc1ccc(Sc2nc3ccccc3[nH]2)cc1`, the GI50 in the test with A549 was 78.2 µM (inactive); in the test on LOX IMVI it was > 100 µM (inactive); in the test with CAKI-1, > 100 µM (inactive); with SR, > 100 µM (inactive); in the test with HT-29 it was > 100 µM (inactive); with SNB-78, > 100 µM (inactive). For the same compound, the GI50 in the test with SF-295 is > 100 µM (inactive); in the test on HL-60, 84.3 µM (inactive); with U-251, > 100 µM (inactive); in the test with ACHN, > 100 µM (inactive); in the test on SF-539, > 100 µM (inactive); with Malme-3M, > 100 µM (inactive). For the same compound, the GI50 in the test with IGROV-1 is 86.7 µM (inactive); in the test on KM12 it was > 100 µM (inactive); with TK-10 it was > 100 µM (inactive); with DMS-273, > 100 µM (inactive).

As to `NCCc1ccc2oc3cc(=O)c4ccccc4c-3nc2c1`, the GI50 is 0.478 µM (active) in the test with A549; 1.24 µM (inactive) in the test with LOX IMVI; 11.5 µM (inactive) with CAKI-1; 1.62 µM (inactive) in the test on SR; 1.82 µM (inactive) in the test on HT-29; 9.35 µM (inactive) in the test with SNB-78. The GI50 was 2.3 µM (inactive) in the test with SF-295; 1.68 µM (inactive) in the test on HL-60; 2.62 µM (inactive) in the test with U-251; 2.61 µM (inactive) with ACHN; 2.6 µM (inactive) in the test on SF-539; 2.12 µM (inactive) in the test on Malme-3M. Moreover, the GI50 in the test with IGROV-1 is 2.59 µM (inactive); with KM12, 2.67 µM (inactive); with TK-10 it was 14 µM (inactive); in the test with DMS-273, 1.36 µM (inactive).

Regarding `Cn1cnc(CCc2ccccc2)n1`, the GI50 with A549, in the test on LOX IMVI, with CAKI-1, with SR, in the test with HT-29 and in the test with SNB-78 was > 100 µM (inactive) throughout. Besides, the GI50 in the test with SF-295, in the test with HL-60, in the test with U-251, in the test with ACHN, in the test on SF-539 and in the test with Malme-3M was > 100 µM (inactive) in each case. Moreover, the GI50 in the test with IGROV-1, with KM12, with TK-10 and in the test with DMS-273 was > 100 µM (inactive) in each case.
